Source: ChEMBL document CHEMBL5442219

Experiments:
Conditions in all cases: Compound concentration 10 µM
[1] = biological target: 5-hydroxytryptamine receptor 1B (Homo sapiens) (UniProt P28222)
[2] = biological target: T1, Alpha-2A adrenergic receptor (Homo sapiens) (UniProt P08913)
T1 sequence (whole entry): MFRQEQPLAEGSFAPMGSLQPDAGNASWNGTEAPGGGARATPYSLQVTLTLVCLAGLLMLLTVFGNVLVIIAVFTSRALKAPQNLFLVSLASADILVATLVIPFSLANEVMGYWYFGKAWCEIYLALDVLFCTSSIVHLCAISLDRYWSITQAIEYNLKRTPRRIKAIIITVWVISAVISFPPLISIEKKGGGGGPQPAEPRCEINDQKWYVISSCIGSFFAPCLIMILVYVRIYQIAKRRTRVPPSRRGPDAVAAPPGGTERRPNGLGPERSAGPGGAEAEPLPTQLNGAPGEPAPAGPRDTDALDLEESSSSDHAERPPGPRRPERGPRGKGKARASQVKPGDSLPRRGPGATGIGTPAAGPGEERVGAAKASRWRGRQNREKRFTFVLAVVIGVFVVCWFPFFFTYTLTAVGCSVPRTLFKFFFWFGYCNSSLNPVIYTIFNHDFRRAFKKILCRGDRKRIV

[3] = biological target: 5-hydroxytryptamine receptor 2A (Homo sapiens) (UniProt P28223)
[4] = biological target: D(3) dopamine receptor (Homo sapiens) (UniProt P35462)
[5] = biological target: Beta-2 adrenergic receptor (Homo sapiens) (UniProt P07550)
[6] = biological target: D(1B) dopamine receptor (Homo sapiens) (UniProt P21918)
[7] = biological target: D(1A) dopamine receptor (Homo sapiens) (UniProt P21728)
[8] = biological target: 5-hydroxytryptamine receptor 1E (Homo sapiens) (UniProt P28566)
[9] = biological target: T2, Alpha-2C adrenergic receptor (Homo sapiens) (UniProt P18825)
T2 sequence (whole entry): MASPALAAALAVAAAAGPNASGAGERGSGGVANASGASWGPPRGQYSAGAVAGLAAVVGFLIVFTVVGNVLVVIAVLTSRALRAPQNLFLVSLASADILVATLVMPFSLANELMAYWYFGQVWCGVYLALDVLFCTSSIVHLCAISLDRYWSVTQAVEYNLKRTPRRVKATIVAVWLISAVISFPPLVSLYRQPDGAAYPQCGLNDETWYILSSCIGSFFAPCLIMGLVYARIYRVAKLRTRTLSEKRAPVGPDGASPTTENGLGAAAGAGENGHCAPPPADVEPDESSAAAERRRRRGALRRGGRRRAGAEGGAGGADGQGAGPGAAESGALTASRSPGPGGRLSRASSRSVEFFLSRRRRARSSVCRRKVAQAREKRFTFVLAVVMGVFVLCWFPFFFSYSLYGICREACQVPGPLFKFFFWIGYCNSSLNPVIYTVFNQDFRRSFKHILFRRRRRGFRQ

[10] = biological target: 5-hydroxytryptamine receptor 1D (Homo sapiens) (UniProt P28221)
[11] = biological target: Sigma intracellular receptor 2 (Homo sapiens) (UniProt Q5BJF2)
[12] = biological target: Translocator protein (Homo sapiens) (UniProt P30536)
[13] = biological target: Sodium-dependent noradrenaline transporter (Homo sapiens) (UniProt P23975)
[14] = biological target: T3, 5-hydroxytryptamine receptor 1A (Homo sapiens) (UniProt P08908)
T3 sequence (whole entry): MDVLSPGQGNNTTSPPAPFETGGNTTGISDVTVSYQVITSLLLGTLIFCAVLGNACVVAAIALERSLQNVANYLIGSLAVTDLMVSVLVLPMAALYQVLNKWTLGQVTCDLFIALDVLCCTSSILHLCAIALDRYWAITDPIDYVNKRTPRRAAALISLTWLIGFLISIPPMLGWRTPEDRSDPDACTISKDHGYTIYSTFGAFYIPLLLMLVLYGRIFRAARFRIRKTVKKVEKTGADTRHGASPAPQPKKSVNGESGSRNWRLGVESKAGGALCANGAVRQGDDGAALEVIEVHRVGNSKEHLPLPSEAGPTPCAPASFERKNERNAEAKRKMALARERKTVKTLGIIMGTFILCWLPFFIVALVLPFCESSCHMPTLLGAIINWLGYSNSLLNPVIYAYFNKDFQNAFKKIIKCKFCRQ

[15] = biological target: 5-hydroxytryptamine receptor 7 (Homo sapiens) (UniProt P34969)
[16] = biological target: D(2) dopamine receptor (Homo sapiens) (UniProt P14416)
[17] = biological target: Delta-type opioid receptor (Homo sapiens) (UniProt P41143)
[18] = biological target: Histamine H4 receptor (Homo sapiens) (UniProt Q9H3N8)
[19] = biological target: 5-hydroxytryptamine receptor 6 (Homo sapiens) (UniProt P50406)
[20] = biological target: T4, Muscarinic acetylcholine receptor M5 (Homo sapiens) (UniProt P08912)
T4 sequence (whole entry): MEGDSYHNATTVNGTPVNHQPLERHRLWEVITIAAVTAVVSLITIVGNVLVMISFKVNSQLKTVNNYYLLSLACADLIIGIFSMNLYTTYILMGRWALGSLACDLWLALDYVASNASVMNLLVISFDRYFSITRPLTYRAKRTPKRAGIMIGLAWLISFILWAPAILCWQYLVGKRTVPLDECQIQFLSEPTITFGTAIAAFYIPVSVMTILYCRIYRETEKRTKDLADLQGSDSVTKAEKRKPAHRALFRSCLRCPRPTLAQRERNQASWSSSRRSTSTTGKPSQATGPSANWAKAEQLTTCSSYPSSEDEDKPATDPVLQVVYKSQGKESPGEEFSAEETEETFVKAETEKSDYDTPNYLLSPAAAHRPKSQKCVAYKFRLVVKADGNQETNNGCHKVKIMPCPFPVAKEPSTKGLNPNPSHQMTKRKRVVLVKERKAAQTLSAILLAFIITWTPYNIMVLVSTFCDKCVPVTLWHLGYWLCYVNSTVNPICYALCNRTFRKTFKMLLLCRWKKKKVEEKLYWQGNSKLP

Measured: inhibition

Sequence of 5-hydroxytryptamine receptor 1B (Homo sapiens) (P28222 whole entry): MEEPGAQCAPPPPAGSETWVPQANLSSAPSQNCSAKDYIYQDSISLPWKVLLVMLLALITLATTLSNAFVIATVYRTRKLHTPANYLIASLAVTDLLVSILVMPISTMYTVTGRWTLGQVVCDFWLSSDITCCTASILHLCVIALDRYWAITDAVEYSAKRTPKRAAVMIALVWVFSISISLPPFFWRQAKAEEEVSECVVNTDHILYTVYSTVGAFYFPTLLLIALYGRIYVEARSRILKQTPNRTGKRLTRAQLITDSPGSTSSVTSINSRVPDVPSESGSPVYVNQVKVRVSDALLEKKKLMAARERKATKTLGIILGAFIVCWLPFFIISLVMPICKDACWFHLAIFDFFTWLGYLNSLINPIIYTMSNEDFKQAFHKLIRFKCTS
Sequence of D(1B) dopamine receptor (Homo sapiens) (P21918 whole entry): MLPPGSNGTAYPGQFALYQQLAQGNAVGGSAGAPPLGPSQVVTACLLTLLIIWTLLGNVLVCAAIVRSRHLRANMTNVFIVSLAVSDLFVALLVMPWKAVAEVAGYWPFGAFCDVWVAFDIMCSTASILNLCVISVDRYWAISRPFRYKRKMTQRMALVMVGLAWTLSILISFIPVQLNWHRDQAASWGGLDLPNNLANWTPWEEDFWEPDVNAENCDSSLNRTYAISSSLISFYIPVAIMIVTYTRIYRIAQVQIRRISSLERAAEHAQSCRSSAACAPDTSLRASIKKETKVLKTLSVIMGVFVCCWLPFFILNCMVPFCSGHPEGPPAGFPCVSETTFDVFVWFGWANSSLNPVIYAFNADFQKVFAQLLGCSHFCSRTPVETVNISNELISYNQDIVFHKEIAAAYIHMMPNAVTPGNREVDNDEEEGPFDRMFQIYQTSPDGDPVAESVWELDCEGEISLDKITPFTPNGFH
Sequence of Delta-type opioid receptor (Homo sapiens) (P41143 whole entry): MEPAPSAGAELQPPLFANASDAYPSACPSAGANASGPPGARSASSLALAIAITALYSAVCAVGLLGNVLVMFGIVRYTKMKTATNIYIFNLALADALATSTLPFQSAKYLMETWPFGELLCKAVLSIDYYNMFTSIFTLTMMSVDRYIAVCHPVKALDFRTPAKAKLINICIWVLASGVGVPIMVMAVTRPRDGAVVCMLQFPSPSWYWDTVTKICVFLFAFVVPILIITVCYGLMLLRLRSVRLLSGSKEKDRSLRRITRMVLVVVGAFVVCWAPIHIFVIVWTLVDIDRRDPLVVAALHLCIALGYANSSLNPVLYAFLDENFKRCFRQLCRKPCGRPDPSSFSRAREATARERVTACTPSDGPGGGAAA
Sequence of 5-hydroxytryptamine receptor 7 (Homo sapiens) (P34969 whole entry): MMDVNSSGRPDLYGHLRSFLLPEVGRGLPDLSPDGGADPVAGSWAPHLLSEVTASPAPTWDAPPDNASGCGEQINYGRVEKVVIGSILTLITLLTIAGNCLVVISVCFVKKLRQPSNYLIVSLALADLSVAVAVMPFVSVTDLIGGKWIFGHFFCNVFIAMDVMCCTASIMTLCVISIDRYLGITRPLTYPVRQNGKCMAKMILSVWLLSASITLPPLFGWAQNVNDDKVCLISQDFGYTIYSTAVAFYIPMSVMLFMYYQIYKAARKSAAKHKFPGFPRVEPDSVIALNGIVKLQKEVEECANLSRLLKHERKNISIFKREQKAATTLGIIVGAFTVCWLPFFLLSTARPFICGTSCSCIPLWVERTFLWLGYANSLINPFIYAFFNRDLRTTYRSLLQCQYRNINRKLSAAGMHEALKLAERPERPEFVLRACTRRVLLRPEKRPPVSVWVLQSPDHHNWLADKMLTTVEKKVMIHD
Sequence of D(3) dopamine receptor (Homo sapiens) (P35462 whole entry): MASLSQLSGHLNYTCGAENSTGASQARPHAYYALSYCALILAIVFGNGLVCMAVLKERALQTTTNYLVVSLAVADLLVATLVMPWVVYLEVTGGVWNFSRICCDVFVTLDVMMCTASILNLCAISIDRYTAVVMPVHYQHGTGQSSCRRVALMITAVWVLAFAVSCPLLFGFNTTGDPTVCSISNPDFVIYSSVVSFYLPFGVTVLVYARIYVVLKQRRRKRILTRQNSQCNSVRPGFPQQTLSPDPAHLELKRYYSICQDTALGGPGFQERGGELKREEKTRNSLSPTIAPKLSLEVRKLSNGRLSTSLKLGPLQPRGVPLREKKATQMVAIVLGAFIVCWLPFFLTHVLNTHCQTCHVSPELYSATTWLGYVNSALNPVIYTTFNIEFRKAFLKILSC
Sequence of Translocator protein (Homo sapiens) (P30536 whole entry): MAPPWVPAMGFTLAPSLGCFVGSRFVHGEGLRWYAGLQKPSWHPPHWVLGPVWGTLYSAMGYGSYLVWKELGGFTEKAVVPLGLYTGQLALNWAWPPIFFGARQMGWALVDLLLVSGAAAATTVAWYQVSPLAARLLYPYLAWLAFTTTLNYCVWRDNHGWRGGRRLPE
Sequence of Beta-2 adrenergic receptor (Homo sapiens) (P07550 whole entry, looked up): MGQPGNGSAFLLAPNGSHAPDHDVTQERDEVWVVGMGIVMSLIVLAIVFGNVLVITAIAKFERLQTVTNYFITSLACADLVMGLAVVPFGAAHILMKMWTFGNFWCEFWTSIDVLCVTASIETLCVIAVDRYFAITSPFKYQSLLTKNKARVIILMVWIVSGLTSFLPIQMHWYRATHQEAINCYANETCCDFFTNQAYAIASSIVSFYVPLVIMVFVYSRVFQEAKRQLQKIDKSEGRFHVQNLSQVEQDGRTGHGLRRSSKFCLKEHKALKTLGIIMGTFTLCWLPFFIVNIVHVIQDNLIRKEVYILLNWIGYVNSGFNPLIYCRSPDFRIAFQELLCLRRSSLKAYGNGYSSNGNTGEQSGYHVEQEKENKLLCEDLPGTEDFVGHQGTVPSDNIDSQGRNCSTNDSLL
Sequence of Sodium-dependent noradrenaline transporter (Homo sapiens) (P23975 whole entry): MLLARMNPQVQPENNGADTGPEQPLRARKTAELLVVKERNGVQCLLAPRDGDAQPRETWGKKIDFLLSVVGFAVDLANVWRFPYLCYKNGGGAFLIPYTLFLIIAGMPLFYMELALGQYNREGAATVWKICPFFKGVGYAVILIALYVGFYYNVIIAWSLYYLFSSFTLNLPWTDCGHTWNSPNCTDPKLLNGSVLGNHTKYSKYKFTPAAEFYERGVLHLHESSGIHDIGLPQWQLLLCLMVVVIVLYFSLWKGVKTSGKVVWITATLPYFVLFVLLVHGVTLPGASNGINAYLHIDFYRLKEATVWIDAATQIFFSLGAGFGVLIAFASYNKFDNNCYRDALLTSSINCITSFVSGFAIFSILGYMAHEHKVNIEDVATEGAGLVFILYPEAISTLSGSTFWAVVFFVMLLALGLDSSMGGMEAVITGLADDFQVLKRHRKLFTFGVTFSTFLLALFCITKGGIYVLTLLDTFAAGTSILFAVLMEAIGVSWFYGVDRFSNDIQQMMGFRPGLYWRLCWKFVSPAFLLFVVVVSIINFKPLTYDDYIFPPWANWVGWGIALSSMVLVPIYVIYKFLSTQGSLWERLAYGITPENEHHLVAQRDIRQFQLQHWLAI
Sequence of 5-hydroxytryptamine receptor 1E (Homo sapiens) (P28566 whole entry): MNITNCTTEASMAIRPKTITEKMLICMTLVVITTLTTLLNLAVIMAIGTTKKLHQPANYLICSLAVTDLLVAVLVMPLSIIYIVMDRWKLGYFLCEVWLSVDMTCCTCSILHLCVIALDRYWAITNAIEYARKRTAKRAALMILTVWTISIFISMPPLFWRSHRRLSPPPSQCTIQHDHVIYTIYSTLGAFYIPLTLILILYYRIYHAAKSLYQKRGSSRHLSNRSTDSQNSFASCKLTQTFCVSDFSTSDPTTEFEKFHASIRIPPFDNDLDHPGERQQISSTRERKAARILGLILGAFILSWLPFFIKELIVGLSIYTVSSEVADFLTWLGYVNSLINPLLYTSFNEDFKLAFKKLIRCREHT
Sequence of D(1A) dopamine receptor (Homo sapiens) (P21728 whole entry): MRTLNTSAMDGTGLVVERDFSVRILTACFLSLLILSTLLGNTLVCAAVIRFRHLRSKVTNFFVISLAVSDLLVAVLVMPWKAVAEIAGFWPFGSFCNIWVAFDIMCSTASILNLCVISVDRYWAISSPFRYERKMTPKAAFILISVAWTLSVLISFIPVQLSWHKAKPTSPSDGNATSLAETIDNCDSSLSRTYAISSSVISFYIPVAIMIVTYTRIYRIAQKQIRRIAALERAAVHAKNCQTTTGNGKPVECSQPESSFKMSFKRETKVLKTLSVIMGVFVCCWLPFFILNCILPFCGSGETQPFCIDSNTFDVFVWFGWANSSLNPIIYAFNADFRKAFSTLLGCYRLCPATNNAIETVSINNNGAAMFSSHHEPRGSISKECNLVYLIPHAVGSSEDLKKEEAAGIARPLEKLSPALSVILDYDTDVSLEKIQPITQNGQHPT
Sequence of Histamine H4 receptor (Homo sapiens) (Q9H3N8 whole entry): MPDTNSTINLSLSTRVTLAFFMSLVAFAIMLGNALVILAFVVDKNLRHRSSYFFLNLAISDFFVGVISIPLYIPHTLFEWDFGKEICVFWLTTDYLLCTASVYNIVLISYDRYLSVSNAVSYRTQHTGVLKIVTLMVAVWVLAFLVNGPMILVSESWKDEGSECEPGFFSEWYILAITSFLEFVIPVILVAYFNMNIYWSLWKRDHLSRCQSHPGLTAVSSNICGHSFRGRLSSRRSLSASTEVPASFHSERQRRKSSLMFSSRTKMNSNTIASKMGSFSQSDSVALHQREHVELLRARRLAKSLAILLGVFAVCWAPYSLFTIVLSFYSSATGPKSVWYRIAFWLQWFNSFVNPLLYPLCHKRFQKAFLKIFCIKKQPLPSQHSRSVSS
Sequence of 5-hydroxytryptamine receptor 1D (Homo sapiens) (P28221 whole entry): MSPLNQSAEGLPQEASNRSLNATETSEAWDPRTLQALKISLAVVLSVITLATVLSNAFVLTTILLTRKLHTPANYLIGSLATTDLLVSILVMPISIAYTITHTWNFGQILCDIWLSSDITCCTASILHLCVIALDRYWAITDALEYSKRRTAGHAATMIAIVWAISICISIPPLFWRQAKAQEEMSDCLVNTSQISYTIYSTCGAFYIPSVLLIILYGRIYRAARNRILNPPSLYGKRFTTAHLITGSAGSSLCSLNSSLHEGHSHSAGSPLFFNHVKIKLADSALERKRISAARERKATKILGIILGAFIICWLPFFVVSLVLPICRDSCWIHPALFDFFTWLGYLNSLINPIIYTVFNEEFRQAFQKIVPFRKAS

NC[C@H](O)c1ccc(O)c(O)c1
active: [2] 61.9% | [4] 57.9% | [9] 79.4%
inactive: [1] 10.7% | [3] 10.9% | [5] 16.9% | [6] 34.8% | [7] 2.57% | [8] 1.24% | [10] 24.3% | [11] 24.6% | [12] 4.34% | [13] 15.2% | [14] -9.29% | [15] -5% | [16] 6.01% | [17] -5.14%

OC[C@H]1O[C@@H](n2cnc3c(NC4CCCC4)ncnc32)[C@H](O)[C@@H]1O
active: [6] 80.8%
inactive: [1] 15.9% | [2] -6.3% | [3] -8.74% | [4] 7.26% | [5] -3.65% | [7] -1.28% | [8] -3.16% | [10] 24.7% | [11] 14.2% | [13] 28.3% | [14] -5.74% | [15] 16.1% | [16] 25% | [17] -3.21%

Cc1cc(C)c(N)c(C#Cc2cccc(F)c2)n1
active: [13] 65.2%
inactive: [1] 16.6% | [2] 4.3% | [3] 5.87% | [4] 9.35% | [18] 8.38% | [5] 19.8% | [6] 0.26% | [7] 17.1% | [8] 20.1% | [9] 13.5% | [10] 18.3% | [11] 15.9% | [12] 39.6% | [19] 16.2% | [14] -6.48% | [15] 7.78% | [16] 0.33% | [17] -1.56%

Clc1ccc(CCCOCCCN2CCCCC2)cc1
inactive: [1] 12.1% | [2] -7.75% | [3] 28.5% | [4] 47.4% | [18] -7.57% | [5] -7.56% | [7] 12.1% | [8] 17.3% | [9] 49.4% | [10] 16.4% | [12] -6.49% | [19] 39.1% | [14] 16.8% | [16] 6.98% | [17] -1.15% | [20] 23.1%
active: [11] 98.7% | [13] 64.5% | [15] 63.3%

FC(F)(F)c1cccc(-c2noc(-c3cc(-c4ccccc4)c(C(F)(F)F)s3)n2)c1
inactive: [1] 1.92% | [2] -2.79% | [3] -1.97% | [8] 10.4% | [9] -0.68% | [10] -9.1% | [12] 5.27% | [19] -0.25% | [14] 2.88% | [15] 7.06% | [16] 24.7% | [20] -4.18%

CCC(=O)NCC[C@@H]1CCc2ccc3c(c21)CCO3
inactive: [1] 15.8% | [2] 18.4% | [3] 6.79% | [4] 8.49% | [5] 12.6% | [6] -3.26% | [7] -1.3% | [8] -5.33% | [9] -9.25% | [10] 6.75% | [11] 47.4% | [12] 27.6% | [13] 18% | [14] -7.41% | [15] 12.4% | [16] 2.72% | [17] -5.97%

Cc1nc(C#Cc2ccnc(Cl)c2)c(C)n1-c1ccc(OC(F)(F)F)cc1
inactive: [1] 11.3% | [2] 23.9% | [3] 16.1% | [4] 13.1% | [18] -9.98% | [6] 6% | [8] 20.5% | [9] -5.37% | [10] 48.9% | [13] 1.45% | [19] -0.41% | [14] 10.3% | [15] 7.42% | [16] 28.3% | [17] -5.91% | [20] -6.77%
active: [11] 75.5% | [12] 64.3%

COc1ccc2[nH]cc(CCNC(C)=O)c2c1
inactive: [1] 12.5% | [2] 8.96% | [4] -7.6% | [18] -3.64% | [5] -1.29% | [6] 6.12% | [7] 13.1% | [10] 17.3% | [11] 22.1% | [13] -9.78% | [14] 5.08% | [15] -7.65% | [16] 32.8% | [17] -3.9%

Clc1cccc(Cl)c1NC1=NCCN1
inactive: [1] 13.1% | [4] 19.4% | [18] 2.9% | [5] -4.25% | [8] 9.4% | [10] 29.5% | [12] 10.8% | [13] 20.9% | [14] 8% | [17] -4.61% | [20] 0.71%
active: [2] 103% | [9] 84.7% | [11] 66.3% | [15] 77.2%

N#Cc1c(N)nc(SCc2csc(-c3ccc(Cl)cc3)n2)c(C#N)c1-c1ccc(OCCO)cc1
inactive: [1] 13% | [2] 26.7% | [3] 18.4% | [4] 12.5% | [18] -8.37% | [5] 17% | [7] 11.3% | [8] -9.34% | [9] 3.52% | [10] 5.65% | [11] 36.6% | [13] 33.5% | [14] -0.89% | [15] 3.33%
active: [12] 57.6%

CC1(C)SSC(C)(C)[C@@H](NC(=O)[C@@H](N)Cc2ccc(O)cc2)C(=O)NCC(=O)N[C@@H](Cc2ccccc2)C(=O)N[C@H]1C(=O)O
inactive: [1] 7.79% | [2] 13.7% | [3] 24.5% | [4] 0.23% | [18] -8.56% | [5] -0.03% | [6] 3.84% | [7] 11.4% | [8] 17.2% | [9] -6.75% | [10] 15.2% | [11] 22.6% | [13] 3.43% | [14] 3.47% | [15] -0.55% | [16] 30.3%
